Data from patent US8697747B2, “Enhancing coagulation or reducing fibrinolysis” (THe UAB Research Foundation, priority 2009, dated 2014).
Marks after values point to notes of the source that are not given here.

Legend:
[1] = system: pooled normal plasma; assay: Thrombelastography/CLSM in pooled normal plasma (INR 1.0) with or without tPA; assay type: biochemical, human
Description: Pooled normal plasma (George King Bio-Medical, Overland Park, Kans.) anticoagulated with sodium citrate was utilized for experimentation. […] Plasma anticoagulated with sodium citrate procured from anonymous donors treated with warfarin was also obtained from the same vendor.
Plasma sample composition of experiments without tPA addition. The final volume for all subsequently described plasma sample mixtures was 359.6 μL. Sample composition consisted of 326 μL of plasma, 10 μL of tissue factor reagent (0.1% final concentration in dH2O; Instrumentation Laboratory, Lexington, Mass.), 3.6 μL of dimethyl sulfoxide (DMSO) or DMSO with CORM-2 (100 μM final concentration; Sigma-Aldrich, St. Louis, Mo.), and 20 μL of 200 mM CaCl2. Tissue factor stock was kept on ice prior to use and was remade every two hours. […] DMSO was added to dry CORM-2 just prior to placement into the plasma mixture. Six replicate experiments were performed with pooled normal plasma with or without CORM-2 added, whereas plasma obtained from subjects treated with warfarin underwent singlicate experiments with or without CORM-2 exposure.
Plasma sample composition of experiments with tPA addition. As in the series of experiments without tPA addition, the final volume of plasma sample mixtures was 359.6 μL. Sample composition consisted of 316 μL of plasma; 10 μL of tissue factor reagent (0.1% final concentration); 3.6 μL of DMSO without or with CORM-2 (100 μM final concentration); 10 μL of tPA diluted with 10 mM potassium phosphate buffer (pH 7.4) for a final activity of 100 IU/mL; and 20 μL of 200 mM CaCl2. As with tissue factor reagent, tPA stock was kept on ice prior to use and was remade every two hours. Six replicate experiments were performed with pooled normal plasma with or without CORM-2 added, whereas plasma obtained from subjects treated with warfarin underwent singlicate experiments with or without CORM-2 exposure.
Clot Lifespan Model Analyses. Plasma sample mixtures were placed in a disposable cup in a computer-controlled THROMBELASTOGRAPH® hemostasis system (Model 5000, Haemoscope Corp., Niles, Ill.), with addition of CaCl2 as the last step to initiate clotting. In the first series of experiments, no tPA was added and data were collected until clot strength (maximum amplitude) was stable. In the second series of experiments in which tPA was added, data were collected until clot lysis time occurred. […] The nomenclature used to describe these phenomena is as follows: Time to maximum rate of thrombus generation (TMRTG): This is the time interval (sec) observed prior to maximum speed of clot growth. Maximum rate of thrombus generation (MRTG): This is the maximum velocity of clot growth observed (dynes/cm^2/sec). Total Thrombus Generation (TTG): This is the total area under the velocity curve during clot growth (dynes/cm^2), representing the amount of clot strength generated during clot growth. Time to maximum rate of lysis (TMRL): This is the time interval (sec) measured from the time of maximum strength to the time when the velocity of clot disintegration is maximal. Maximum Rate of Lysis (MRL): This is the maximum velocity of clot disintegration observed (—dynes/cm^2/sec). Area of Clot Lysis (ACL): This is the total area under the velocity curve during clot disintegration (−dynes/cm^2), representing the amount of clot strength lost during clot disintegration.

[2] = system: rabbit plasma; assay: Thrombelastography in rabbit plasma with or without tPA; assay type: biochemical
Description: Two sets of two Sprague Dawley outbred male rats were anesthetized with ketamine and xylazine and had blood drawn via cardiac puncture, pooled in two batches, and anticoagulated 1:9 with 3.2% sodium citrate. Two male New Zealand White rabbits were sedated with acepromazine and had blood collected via central ear artery and similarly anticoagulated. Blood was centrifuged at 3000×g for 15 min, and the plasma stored in two batches until analyzed. The final volume for thrombelastographic plasma sample mixtures was 359.6 μL. Sample composition consisted of 316 μL of plasma; 10 μL of tissue factor reagent (0.1% final concentration in dH2O; Instrumentation Laboratory, Lexington, Mass.); 10 μL of dH2O or tissue-type plasminogen activator (tPA, 580 U/μg, Genentech, Inc., San Francisco, Calif.) for a final activity of 2000 U/mL for rat plasma or 300 IU/mL for rabbit plasma; 3.6 μL of dimethyl sulfoxide (DMSO) or DMSO with CORM-2 (100 μM final concentration; Sigma-Aldrich, St. Louis, Mo.); and 20 μL of 200 mM CaCl2. The tPA activity for each species was determined with pilot data to obtain reproducible lysis within 15 min. There was no appreciable lysis in rat plasma at 100, 300, or 1000 U/mL tPA. Plasma sample mixtures were placed in a disposable cup in a computer-controlled THROMBELASTOGRAPH® hemostasis system (Model 5000, Haemoscope Corp., Niles, Ill.), with addition of CaCl2 as the last step to initiate clotting. In experiments without tPA, data were collected until clot strength (maximum amplitude) was stable. In experiments with tPA, data derived from the second rabbit plasma samples were collected for 60 min whereas data obtained with the second rat plasma samples were collected for 15 min. Thrombelastographic variables were determined at 39° C. as previously described in Examples 1, 2, and 4. Data were statistically compared with unpaired Student's t-test.

[3] = no tPA, 100 μM CORM-2, mean ± SD, n=6
[4] = tPA 100 U/ml, 100 μM CORM-2, mean ± SD, n=6
[5] = tPA 100 U/ml, 100 μM vs 0 μM CORM-2
[6] = 300 U/ml tPA, 100 μM CORM-2, mean ± SD, n=4
[7] = 300 U/ml tPA, 100 μM vs 0 μM CORM-2
[8] = no tPA, 100 μM CORM-2, mean ± SD, n=7

[C-]#[O+].[C-]#[O+].[C-]#[O+].[C-]#[O+].[C-]#[O+].[C-]#[O+].[Cl][Ru][Cl].[Cl][Ru][Cl] [CORM-2, tricarbonyldichlororuthenium (II) dimer]
MRTG (maximum rate of thrombus generation) [1, 3]: 15.0 ± 2.4 dynes/cm^2/sec | TMRTG (time to maximum rate of thrombus generation) [1, 3]: 2.26 ± 0.03 min | TTG (total thrombus generation) [1, 3]: 285 ± 38 dynes/cm^2 | Percent Change of MRTG ([1]; no tPA, 100 μM vs 0 μM CORM-2): 102% | Percent Change of TMRTG ([1]; no tPA, 100 μM vs 0 μM CORM-2): −5% | Percent Change of TTG ([1]; no tPA, 100 μM vs 0 μM CORM-2): 70% | CGT (clot growth time) [1, 4]: 7.00 ± 0.94 min | CLS (clot lifespan) [1, 4]: 39.07 ± 2.82 min | CLT (clot lysis time) [1, 4]: 32.07 ± 3.15 min | MRL (maximum rate of lysis) [1, 4]: −2.4 ± 0.5 −dynes/cm^2/sec | MRTG (maximum rate of thrombus generation) [1, 4]: 15.2 ± 1.3 dynes/cm^2/sec | TMRL (time to maximum rate of lysis) [1, 4]: 22.92 ± 1.93 min | TMRTG (time to maximum rate of thrombus generation) [1, 4]: 2.14 ± 0.05 min | TTG (total thrombus generation) [1, 4]: 284 ± 27 dynes/cm^2 | Percent Change of CGT [1, 5]: 58% | Percent Change of CLS [1, 5]: 91% | Percent Change of CLT [1, 5]: 100% | Percent Change of MRL [1, 5]: 68% | Percent Change of MRTG [1, 5]: 97% | Percent Change of TMRL [1, 5]: 103% | Percent Change of TMRTG [1, 5]: −2% | Percent Change of TTG [1, 5]: 106% | ACL (area under the curve of lysis) [2, 6]: 196.3 ± 25*^ −dynes/cm^2 | MRL (maximum rate of lysis) [2, 6]: −2.5 ± 0.4 −dynes/cm^2/sec | MRTG (maximum rate of thrombus generation) [2, 6]: 14.2 ± 1.4 dynes/cm^2/sec | TMRL (time to maximum rate of lysis) [2, 6]: 2.6 ± 0.5 min | TMRTG (time to maximum rate of thrombus generation) [2, 6]: 2.8 ± 0.1 min | TTG (total thrombus generation) [2, 6]: 237 ± 8 dynes/cm^2 | Percent Change of ACL [2, 7]: 94% | Percent Change of MRL [2, 7]: −63% | Percent Change of MRTG [2, 7]: 52% | Percent Change of TMRL [2, 7]: 110% | Percent Change of TMRTG [2, 7]: 8% | Percent Change of TTG [2, 7]: 118% | MRTG (maximum rate of thrombus generation) [2, 8]: 13.9 ± 2.9 dynes/cm^2/sec | TMRTG (time to maximum rate of thrombus generation) [2, 8]: 2.8 ± 0.1 min | TTG (total thrombus generation) [2, 8]: 290 ± 35 dynes/cm^2 | Percent Change of MRTG ([2]; no tPA, 100 μM vs 0 μM CORM-2): 46% | Percent Change of TMRTG ([2]; no tPA, 100 μM vs 0 μM CORM-2): 5% | Percent Change of TTG ([2]; no tPA, 100 μM vs 0 μM CORM-2): 25%
